Measured values published in patent US8394952B2 (Vertex Pharmaceuticals Incorporated, priority 2006, dated 2013).

Molecular target: Plk1 (Homo sapiens, UniProt P53350)
Experiment: biochemical

Plk1, sequence (P53350 20-338): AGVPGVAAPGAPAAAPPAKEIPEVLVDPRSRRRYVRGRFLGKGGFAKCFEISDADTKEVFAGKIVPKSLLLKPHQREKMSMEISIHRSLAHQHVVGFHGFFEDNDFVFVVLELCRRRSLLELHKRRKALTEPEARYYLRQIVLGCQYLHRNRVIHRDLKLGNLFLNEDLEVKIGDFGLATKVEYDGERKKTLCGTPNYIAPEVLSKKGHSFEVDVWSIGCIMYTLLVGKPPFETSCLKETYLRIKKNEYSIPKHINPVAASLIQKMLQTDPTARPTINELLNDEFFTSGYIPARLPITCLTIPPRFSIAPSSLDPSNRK

| Ki [nM] | Structure (SMILES) |
| --- | --- |
| < 10 | COc1cc(C(=O)NC2CCOCC2)ccc1Nc1ncc2c(n1)N(C1CCCC1)CC(C)(C)C(=O)N2C [Compound I-134, 4-(9-cyclopentyl-6,7,8,9-tetrahydro-5,7,7-trimethyl-6-oxo-5H-pyrimido[4,5-b][1,4]diazepin-2-ylamino)-N-(tetrahydro-2H-pyran-4-yl)-3-methoxybenzamide] |
| < 10 | COc1cc(C(=O)NCC2CC2(F)F)ccc1Nc1ncc2c(n1)N(C1CCCC1)CC(C)(C)C(=O)N2C (stereo not shown) [Compound I-245, 4-(9-cyclopentyl-5,7,7-trimethyl-6-oxo-6,7,8,9-tetrahydro-5H-pyrimido[4,5-b][1,4]diazepin-2-ylamino)-N-((2,2-difluorocyclopropyl)methyl)-3-methoxybenzamide] |
| < 10 | COc1cc(C(=O)NC2CCCCC2)ccc1Nc1ncc2c(n1)N(C1CCCC1)CC(C)(C)C(=O)N2C [Compound I-133, 4-(9-cyclopentyl-6,7,8,9-tetrahydro-5,7,7-trimethyl-6-oxo-5H-pyrimido[4,5-b][1,4]diazepin-2-ylamino)-N-cyclohexyl-3-methoxybenzamide] |
| < 10 | COC[C@H](C)NC(=O)c1ccc(Nc2ncc3c(n2)N(C2CCCC2)CC(C)(C)C(=O)N3C)c(OC)c1 [Compound I-217, (S)-4-(9-cyclopentyl-5,7,7-trimethyl-6-oxo-6,7,8,9-tetrahydro-5H-pyrimido[4,5-b][1,4]diazepin-2-ylamino)-3-methoxy-N-(1-methoxypropan-2-yl)benzamide] |
| < 10 | COc1cc(C(=O)NC2CC2)ccc1Nc1ncc2c(n1)N(C1CCCC1)CC(C)(C)C(=O)N2C [Compound I-93, 4-(9-cyclopentyl-6,7,8,9-tetrahydro-5,7,7-trimethyl-6-oxo-5H-pyrimido[4,5-b][1,4]diazepin-2-ylamino)-N-cyclopropyl-3-methoxybenzamide] |
| < 10 | COc1cc(C(=O)N[C@@H]2CCOC2)ccc1Nc1ncc2c(n1)N(C1CCCC1)CC(C)(C)C(=O)N2C [Compound I-187, (R)-4-(9-cyclopentyl-5,7,7-trimethyl-6-oxo-6,7,8,9-tetrahydro-5H-pyrimido[4,5-b][1,4]diazepin-2-ylamino)-3-methoxy-N-(tetrahydrofuran-3-yl)benzamide] |
| < 10 | COc1cc(C(=O)Nc2ccccn2)ccc1Nc1ncc2c(n1)N(C1CCCC1)CC(C)(C)C(=O)N2C [Compound I-221, 4-(9-cyclopentyl-5,7,7-trimethyl-6-oxo-6,7,8,9-tetrahydro-5H-pyrimido[4,5-b][1,4]diazepin-2-ylamino)-3-methoxy-N-(pyridin-2-yl)benzamide] |
| 10 to 100 | CNC(=O)c1ccc(Nc2ncc3c(n2)N(C2CCOCC2)CC(C)(C)C(=O)N3C)c(OC)c1 [Compound I-56, 4-(6,7,8,9-tetrahydro-9-(tetrahydro-2H-pyran-4-yl)-5,7,7-trimethyl-6-oxo-5H-pyrimido[4,5-b][1,4]diazepin-2-ylamino)-3-methoxy-N-methylbenzamide] |
| < 10 | COc1cc(C(=O)NC2CN(C)C2)ccc1Nc1ncc2c(n1)N(C1CCCC1)CC(C)(C)C(=O)N2C [Compound I-25, 4-(9-cyclopentyl-6,7,8,9-tetrahydro-5,7,7-trimethyl-6-oxo-5H-pyrimido[4,5-b][1,4]diazepin-2-ylamino)-3-methoxy-N-(1-methylazetidin-3-yl)benzamide] |
| < 10 | COc1cc(C(=O)Nc2ccncc2)ccc1Nc1ncc2c(n1)N(C1CCCC1)CC(C)(C)C(=O)N2C [Compound I-24, 4-(9-cyclopentyl-6,7,8,9-tetrahydro-5,7,7-trimethyl-6-oxo-5H-pyrimido[4,5-b][1,4]diazepin-2-ylamino)-3-methoxy-N-(pyridin-4-yl)benzamide] |
| < 10 | COc1cc(C(=O)NC[C@@H]2CCCC[C@@H]2O)ccc1Nc1ncc2c(n1)N(C1CCCC1)CC(C)(C)C(=O)N2C [Compound I-216, 4-(9-cyclopentyl-5,7,7-trimethyl-6-oxo-6,7,8,9-tetrahydro-5H-pyrimido[4,5-b][1,4]diazepin-2-ylamino)-N-(((1S,2S)-2-hydroxycyclohexyl)methyl)-3-methoxybenzamide] |
| < 10 | COc1cc(C(=O)NCCOCCO)ccc1Nc1ncc2c(n1)N(C1CCCC1)CC(C)(C)C(=O)N2C [Compound I-237, 4-(9-cyclopentyl-5,7,7-trimethyl-6-oxo-6,7,8,9-tetrahydro-5H-pyrimido[4,5-b][1,4]diazepin-2-ylamino)-N-(2-(2-hydroxyethoxy)ethyl)-3-methoxybenzamide] |

The remaining lines, values behind:

| Structure (SMILES) | Ki [nM] |
| --- | --- |
| CN1C(=O)C(C)(C)CN(C2CCCC2)c2nc(Nc3ccc(-n4cncn4)cc3)ncc21 [Compound I-49, 2-(4-(1H-1,2,4-triazol-1-yl)phenylamino)-9-cyclopentyl-8,9-dihydro-5,7,7-trimethyl-5H-pyrimido[4,5-b][1,4]diazepin-6(7H)-one] | 10 to 100 |
| CN1C(=O)C(C)(C)CN(C2CCCC2)c2nc(Nc3ccc(C(=O)NCCO)cc3)ncc21 [Compound I-87, 4-(9-cyclopentyl-6,7,8,9-tetrahydro-5,7,7-trimethyl-6-oxo-5H-pyrimido[4,5-b][1,4]diazepin-2-ylamino)-N-(2-hydroxyethyl)benzamide] | < 10 |
| COc1cc(C(=O)NC2CC3CCC2C3)ccc1Nc1ncc2c(n1)N(C1CCCC1)CC(C)(C)C(=O)N2C (stereo not shown) [Compound I-210, N-(bicyclo[2.2.1]heptan-2-yl)-4-(9-cyclopentyl-5,7,7-trimethyl-6-oxo-6,7,8,9-tetrahydro-5H-pyrimido[4,5-b][1,4]diazepin-2-ylamino)-3-methoxybenzamide] | < 10 |
| CN1C(=O)C(C)(C)CN(C2CCCC2)c2nc(Nc3ccc4[nH][nH]c(=O)c4c3)ncc21 [Compound I-109, 2-(2,3-dihydro-3-oxo-1H-indazol-5-ylamino)-9-cyclopentyl-8,9-dihydro-5,7,7-trimethyl-5H-pyrimido[4,5-b][1,4]diazepin-6(7H)-one] | 10 to 100 |
| COc1cc(C(=O)NCCN2CCCC2)ccc1Nc1ncc2c(n1)N(C1CCCC1)CC(C)(C)C(=O)N2C [Compound I-34, 4-(9-cyclopentyl-6,7,8,9-tetrahydro-5,7,7-trimethyl-6-oxo-5H-pyrimido[4,5-b][1,4]diazepin-2-ylamino)-3-methoxy-N-(2-(pyrrolidin-1-yl)ethyl)benzamide] | < 10 |
| CNC(=O)c1ccc(Nc2ncc3c(n2)N(CC2CCC2)CC(C)(C)C(=O)N3C)c(OC)c1 [Compound I-123, 4-(9-(cyclobutylmethyl)-6,7,8,9-tetrahydro-5,7,7-trimethyl-6-oxo-5H-pyrimido[4,5-b][1,4]diazepin-2-ylamino)-3-methoxy-N-methylbenzamide] | < 10 |
| COc1cc(C(=O)NC2CC(F)(F)C2)ccc1Nc1ncc2c(n1)N(C1CCCC1)CC1(CC1)C(=O)N2C [Compound I-269, 4-(9′-cyclopentyl-5′-methyl-6′-oxo-5′,6′,8′,9′-tetrahydrospiro[cyclopropane-1,7′-pyrimido[4,5-b][1,4]diazepine]-2′-ylamino)-N-(3,3-difluorocyclobutyl)-3-methoxybenzamide] | < 10 |
| CNC(=O)c1ccc(Nc2ncc3c(n2)N(C2CCCC2)CC2(CC2)C(=O)N3C)c(OC)c1 [Compound I-62, 4-(9′-cyclopentyl-5′-methyl-6′-oxo-5′,6′,8′,9′-tetrahydrospiro[cyclopropane-1,7′-pyrimido[4,5-b][1,4]diazepine]-2′-ylamino)-3-methoxy-N-methylbenzamide] | < 10 |
| CNC(=O)c1ccc(Nc2ncc3c(n2)N(c2cccc(Cl)c2)CC(C)(C)C(=O)N3C)c(OC)c1 [Compound I-161, 4-(9-(3-chlorophenyl)-6,7,8,9-tetrahydro-5,7,7-trimethyl-6-oxo-5H-pyrimido[4,5-b][1,4]diazepin-2-ylamino)-3-methoxy-N-methylbenzamide] | 10 to 100 |
| COc1cc(C(=O)NCc2ccco2)ccc1Nc1ncc2c(n1)N(C1CCCC1)CC1(CC1)C(=O)N2C [Compound I-248, 4-(9′-cyclopentyl-5′-methyl-6′-oxo-5′,6′,8′,9′-tetrahydrospiro[cyclopropane-1,7′-pyrimido[4,5-b][1,4]diazepine]-2′-ylamino)-N-(furan-2-ylmethyl)-3-methoxybenzamide] | < 10 |
| CN1C(=O)C(C)(C)CN(C2CCCC2)c2nc(Nc3cccc(C(=O)NC4CN(C(=O)OC(C)(C)C)C4)c3)ncc21 [Compound I-143, 3-[3-(9-Cyclopentyl-5,7,7-trimethyl-6-oxo-6,7,8,9-tetrahydro-5H-pyrimido[4,5-b][1,4]diazepin-2-ylamino)-benzoylamino]-azetidine-1-carboxylic acid tert-butyl ester] | 10 to 100 |
| COc1cc(C(=O)NC2CCN(CCF)CC2)ccc1Nc1ncc2c(n1)N(C1CCCC1)CC(C)(C)C(=O)N2C [Compound I-77, 4-(-9-cyclopentyl-6,7,8,9-tetrahydro-5,7,7-trimethyl-6-oxo-5H-pyrimido[4,5-b][1,4]diazepin-2-ylamino)-N-(1-(2-fluoroethyl)piperidin-4-yl)-3-methoxybenzamide] | < 10 |
| CNC(=O)c1ccc(Nc2ncc3c(n2)N(C2CC(F)(F)C2)CC(C)(C)C(=O)N3C)c(OC)c1 [Compound I-170, 4-(9-(3,3-difluorocyclobutyl)-6,7,8,9-tetrahydro-5,7,7-trimethyl-6-oxo-5H-pyrimido[4,5-b][1,4]diazepin-2-ylamino)-3-methoxy-N-methylbenzamide] | < 10 |
| CN1CCN(c2ccc(Nc3ncc4c(n3)N(C3CCCC3)CC(C)(C)C(=O)N4C)cc2)CC1 [Compound I-85, 2-(4-(4-methylpiperazin-1-yl)phenylamino)-9-cyclopentyl-8,9-dihydro-5,7,7-trimethyl-5H-pyrimido[4,5-b][1,4]diazepin-6(7H)-one] | < 10 |
| CNC(=O)c1ccc(Nc2ncc3c(n2)N(C2CCCC2)[C@@H]2CCC[C@@H]2C(=O)N3C)c(OC)c1 [Compound I-15, 4-((3aR,10aS)-4-cyclopentyl-9-methyl-10-oxo-1,2,3,3a,4,9,10,10a-octahydro-4,5,7,9-tetraaza-benzo[f]azulen-6-ylamino)-3-methoxy-N-methylbenzamide] | 10 to 100 |
| CN1C(=O)C(C)(C)CN(C2CCCC2)c2nc(Nc3cccc(-c4cccnc4)c3)ncc21 [Compound I-153, 2-(3-(pyridin-3-yl)phenylamino)-9-cyclopentyl-8,9-dihydro-5,7,7-trimethyl-5H-pyrimido[4,5-b][1,4]diazepin-6(7H)-one] | 10 to 100 |
